Where a SMILES comes first, the peptide text is derived from it. Bridges are numbered along the chain shown (N, C = ends). [ ]: non-standard residue; d: D form. The star is where a group is joined. ξ: configuration not given here. Decanoyl(3ξ-OH) = CCCCCCCC(O)CC(=O)*; Dab = NCC[CH](N)C(=O)O; Dhb = C/C=C(\N)C(=O)O
What was measured:
[1] = system: organisms tested (gram-positive and gram-negative bacteria, Table 1)
Flavobacterium devorans = test: Inhibition rate (IR), propidium iodide uptake; format: cell-based
Protocol: (§1) The antimicrobial action for each compound was initially determined by the rate of uptake of propidium iodide (Fluoropure grade, Molecular Probes, Inc., Eugene, Oreg.) as previously described (Haughland, R. P., 2002, Handbook of fluorescent probes and research chemicals, 9th ed. Molecular Probes, Inc., Eugene, Oreg.). Briefly, all cultures were grown overnight in their respective optimal growth medium and temperature from freezer vials (Table 1). Each culture was sub-cultured twice, harvested in mid-log phase, washed with saline, and adjusted to an appropriate concentration by measuring the optical density at 600 nm. PI, with an excitation wavelength of 535 and an emission wavelength of 617, was added to the culture suspension at a final concentration of 10 μM. Each organism was treated with 50 μg/mL SP 25A and 60 μg/mL of the RL mixture in a final volume of 2.2 mL. The increase in fluorescence was measured with a Shimadzu RF 1501 spectrophotofluorometer at 15 s intervals for a maximum period of 120 min. Saline was added in place of SP 25A or RLs as a negative control. All inhibition experiments were done in replicate.
(§2) The rate of antimicrobial action was expressed as the inhibition rate (“IR”). Curve fitting was done using OriginPro version 7.0 (Natick, Mass.). IR=((Log RFU/(Time))−C)/Time (when d Log RFU/dT>0). Where RFU=relative fluorescent units; and C=Y intercept.

Clostridium sporogenes = test: Inhibition rate (IR), propidium iodide uptake; format: cell-based
Protocol: as §1, §2

Eschereschia coli K12 = test: Inhibition rate (IR), propidium iodide uptake; format: cell-based
Protocol: as §1, §2

[2] = system: Klebsiella pneumoniae subsp. Pneumoniae; test: Inhibition rate (IR), propidium iodide uptake; format: cell-based
Protocol: as §1, §2

Lactobacillus plantarum = test: Inhibition rate (IR), propidium iodide uptake; format: cell-based
Protocol: as §1, §2

Streptococcus mutans = test: Inhibition rate (IR), propidium iodide uptake; format: cell-based
Protocol: as §1, §2

[3] = system: Streptococcus agalacticae; test: Inhibition rate (IR), propidium iodide uptake; format: cell-based
Protocol: as §1, §2

Enterobacter aerogenes = test: Inhibition rate (IR), propidium iodide uptake; format: cell-based
Protocol: as §1, §2

Brevibacterium linens = test: Inhibition rate (IR), propidium iodide uptake; format: cell-based
Protocol: as §1, §2

Listeria innocua = test: Inhibition rate (IR), propidium iodide uptake; format: cell-based
Protocol: as §1, §2

[4] = system: Lactobacillus acidophilus; test: Inhibition rate (IR), propidium iodide uptake; format: cell-based
Protocol: as §1, §2

Bacillus subtilis = test: Inhibition rate (IR), propidium iodide uptake; format: cell-based
Protocol: as §1, §2

Citrobacter fruendii = test: Inhibition rate (IR), propidium iodide uptake; format: cell-based
Protocol: as §1, §2

Erwinia herbicola = test: Inhibition rate (IR), propidium iodide uptake; format: cell-based
Protocol: as §1, §2

Aeromonas caviae = test: Inhibition rate (IR), propidium iodide uptake; format: cell-based
Protocol: as §1, §2

Enterococcus faecalis = test: Inhibition rate (IR), propidium iodide uptake; format: cell-based
Protocol: as §1, §2

Listeria monocytogenes = test: Inhibition rate (IR), propidium iodide uptake; format: cell-based
Protocol: as §1, §2

Salmonella enteridis = test: Inhibition rate (IR), propidium iodide uptake; format: cell-based
Protocol: as §1, §2

Salmonella typhimurium = test: Inhibition rate (IR), propidium iodide uptake; format: cell-based
Protocol: as §1, §2

[5] = system: Staphylococcus aureus subsp. aureus; test: Inhibition rate (IR), propidium iodide uptake; format: cell-based
Protocol: as §1, §2

Streptococcus suis = test: Inhibition rate (IR), propidium iodide uptake; format: cell-based
Protocol: as §1, §2

[6] = system: Eschereschia coli H7:0157; test: Inhibition rate (IR), propidium iodide uptake; format: cell-based
Protocol: as §1, §2

[7] = system: human embryonic kidney cells (HEK 293); test: Toxicity to mammalian cells, percent cell death (Nucleocounter); details: 4 μg/mL and 8 μg/mL, 6, 24, and 48 h
Protocol: (§3) Toxicity of the two compounds to mammalian cells was assayed in cell culture using mouse enteroendocrine cells (STC-1), human embryonic kidney cells (HEK 293; ATCC CRL-1573), and human lung fibroblasts (LL47; ATCC CCL-135). […] The human embryonic kidney cells and human lung fibroblasts were grown as per the American Type Culture Collection's recommendation, while the mouse enteroendocrine cells were grown as described by Vincent et al. (2001, Proc. Natl. Acad. Sci., 99:2392-2397). Media and sera were purchased from HyClone Laboratories (Logan, Utah). All cells were grown in 10% fetal bovine serum (FBS).
(§4) The number in the parenthesis represents the concentration of each compound in μg/mL. The percent cell death was benchmarked to 100% lysis with the positive control. The number of total cells and dead cells were counted after 6, 24, and 48 h using a Nucleocounter Automated cell counting system (New Brunswick; Edison, N.J.). Briefly, cells (STC, 200,000 cells/well; HEK 293, 200,000 cells/well; and LL47, 100,000 cells/well) were incubated in the appropriate medium for 24 h prior to addition of fresh media containing the antimicrobial compounds. After addition of the antimicrobial compound, the cell cultures were incubated at 37° C. with 5% CO2 for 6, 24, and 48 h. Cells were harvested by trypsinization using 0.25% trypsin-EDTA for 2 min. The trypsin was neutralized by addition of 200 μL of serum containing fresh medium. The cells were then harvested and transferred to 1.5 mL tubes, centrifuged (3-5 min at <100×g), and resuspended in 200 μL of fresh medium. For the total cell count, 100 μL of the suspension was added to lysis buffer (Reagent A100 in the starting kit (Cat No. M1293-0020, New Brunswick Scientific) for 30 s, which was stabilized using 100 μL of Reagent B. A positive control of completely lysed cells was used along with a negative control using sterile PBS (pH 7.4). For dead cell counts, 100 μL of cell lysate was counted without the use of lysis buffer or stabilizing buffer. All cell counts were obtained using the Nucleocounter automated cell counting system. Data were reported as the percent of cell death. The toxicity testing was done in replicate using three wells per test.

[8] = system: human lung fibroblasts (LL47); test: as above; details: 4 μg/mL and 8 μg/mL, 6, 24, and 48 h
Protocol: as §3, §4

[9] = system: mouse enteroendocrine cells (STC-1); test: as above; details: 4 μg/mL and 8 μg/mL, 6, 24, and 48 h
Protocol: as §3, §4

C/C=C(\NC(=O)C(C)NC(=O)C(C)NC(=O)C(CC(C)C)NC(=O)C(NC(=O)C(C)NC(=O)C(C)NC(=O)C(NC(=O)C1CCCN1C(=O)/C(=C/C)NC(=O)CC(O)CCCCCCC)C(C)C)C(C)C)C(=O)NC(C(=O)N/C(=C\C)C(=O)NC(C)C(=O)NC(C(=O)NC(C)C(=O)NC(C)C(=O)N/C(=C\C)C(=O)NC1C(=O)NC(CO)C(=O)NC(C)C(=O)NC(C(C)C)C(=O)NC(C)C(=O)NC(CCN)C(=O)NC(CCN)C(=O)NC(Cc2ccc(O)cc2)C(=O)OC1C)C(C)C)C(C)C (centres unmarked) [SP 25A, syringopeptin 25A] ({Decanoyl(3ξ-OH)}-[Dhb]PVAAVLAA[Dhb]V[Dhb]AVAA[Dhb]TSAVA[Dab][Dab]Y; ester 18-C; configuration not given here)
MIC range for the organisms tested [1]: 3 to 16 µg/mL | MICs against gram-positive bacteria [1]: ≤ 8 µg/mL | growth inhibition of gram-negative organisms tested ([1]; gram-negative organisms, except F. devorans): did not inhibit the growth | IR SP 25A (50 μg/mL) (Flavobacterium devorans): 0.002 | IR SP 25A (50 μg/mL) (Clostridium sporogenes): 0.008 | IR SP 25A (50 μg/mL) (Eschereschia coli K12): 0.000 | IR SP 25A (50 μg/mL) [2]: 0.000 | IR SP 25A (50 μg/mL) (Lactobacillus plantarum): 0.003 | IR SP 25A (50 μg/mL) (Streptococcus mutans): 0.003 | IR SP 25A (50 μg/mL) [3]: 0.004 | IR SP 25A (50 μg/mL) (Enterobacter aerogenes): 0.000 | IR SP 25A (50 μg/mL) (Brevibacterium linens): 0.009 | IR SP 25A (50 μg/mL) (Listeria innocua): 0.005 | IR SP 25A (50 μg/mL) [4]: 0.003 | IR SP 25A (50 μg/mL) (Bacillus subtilis): 0.006 | IR SP 25A (50 μg/mL) (Citrobacter fruendii): 0.000 | IR SP 25A (50 μg/mL) (Erwinia herbicola): 0.000 | IR SP 25A (50 μg/mL) (Aeromonas caviae): 0.000 | IR SP 25A (50 μg/mL) (Enterococcus faecalis): 0.001 | inhibition rate relative to the inhibition rate for RLs (Listeria monocytogenes; L. monocytogenes, each compound tested by itself): approximately one-sixth | IR SP 25A (50 μg/mL) (Listeria monocytogenes; Listeria monocytogenes, 50 μg/mL): 0.005 | IR SP 25A (50 μg/mL) (Salmonella enteridis): 0.000 | IR SP 25A (50 μg/mL) (Salmonella typhimurium): 0.000 | IR SP 25A (50 μg/mL) [5]: 0.003 | IR SP 25A (50 μg/mL) (Streptococcus suis): 0.006 | IR SP 25A (50 μg/mL) [6]: 0.000 | cytotoxicity (percent cell death) [7]: No significant (p>0.05) cytotoxicity | cytotoxicity (percent cell death) [8]: No significant (p>0.05) cytotoxicity | cytotoxicity (percent cell death) [9]: No significant (p>0.05) cytotoxicity
